{"source": "paper PMC2594009", "about": "(Structure (London, England : 1993), 2008)", "key": {"L26F AM2": {"test_system": "L26F AM2", "assay_type": "cell-based, influenza A virus", "details": "pH 5.5"}, "S31N AM2": {"test_system": "S31N AM2", "assay_type": "cell-based, influenza A virus", "details": "pH 5.5"}}, "note": "“And” between values parts separate entries of the source, which are not always exact repeats. Identical values can stand only once. “Also recorded” adds a separate entry of the source.", "data": [{"smiles": "NC12CC3CC(CC(C3)C1)C2", "note": "[amantadine]", "values": [{"measurement": "inhibition of the inward current", "setting": "L26F AM2", "result": "47% and 46.8 ± 0.7%"}, {"measurement": "reversibility of inhibition after removal of the drug", "setting": "L26F AM2", "result": "reversibly inhibited; also recorded: readily reversible"}, {"measurement": "inhibition of the inward current", "setting": "S31N AM2", "result": "30% and 30.7 ± 1.8%"}, {"measurement": "reversibility of inhibition after removal of the drug", "setting": "S31N AM2", "result": "immediately reversed; also recorded: highly reversible"}]}]}
